# From patent US8415340B2, “Triazine kinase inhibitors” (Bristol-Myers Squibb Company, priority 2007, dated 2013)
# Tested on: IGF1R-Sal tumors
# Test: IGF-1R Sal Tumor Model
# Assay type: in vivo
# Details: orally, qd × 4 days, nude mice bearing IGF1R-Sal tumors
# Method: P. IGF-1R Sal Tumor Model
# A salivary gland adenocarcinoma that developed spontaneously in a transgenic mouse (MCI-19) was excised and cut into fragments of about 20 mg. Tumor fragments were implanted s.c. into the ventral thoracic region of a group of six female, athymic BALB/c nu/nu mice (Harley Sprague-Dawley, Indianapolis, Ind.), using a 13-gauge trocar. Once established, the salivary gland-derived tumor line was designated IGF1R-Sal and was propagated as a tumor xenograft in nude mice. Tumors were passaged every 2 weeks, at which time the tumor reached f500 to 1,000 mm3 in size. For treatment studies, nude micebearing IGF1R-Sal tumors of about 100 mm3 in size were sorted into groups of five for treatment with vehicle (80% polyethylene glycol 400 in water) alone or the test article. Compounds were administered either on a bid schedule (oral doses 8 hours apart) or on a once a day schedule orally (qd) for 4 consecutive days. Tumors were measured at the start and end of treatment. Activity was measured as % tumor growth inhibition (% TGI). The % TGI was determined using the following formula (Ct−Tt)/(Ct−Co) where Ct is defined as the median tumor size of the control group at the end of treatment, Co is defined as the median tumor size of the control group at the start of treatment, and Tt is defined as the median tumor size of the treated group at the end of treatment.
SMILES,% TGI (50 mpk),% TGI (6.25 mpk)
"CN1CCN(c2nc(Nc3cc(C4CC4)n[nH]3)nc(N3C[C@H](F)C[C@H]3C(=O)Nc3ncns3)n2)CC1 [Example 83, (2S,4R)-1-(4-(3-Cyclopropyl-1H-pyrazol-5-ylamino)-6-(4-methylpiperazin-1-yl)-1,3,5-triazin-2-yl)-4-fluoro-N-(1,2,4-thiadiazol-5-yl)pyrrolidine-2-carboxamide]",27%,
"COCCN1CCN(c2nc(Nc3cc(C4CC4)n[nH]3)nc(N3C[C@H](F)C[C@H]3C(=O)Nc3ncns3)n2)CC1 [Example 84, (2S,4R)-1-(4-(3-Cyclopropyl-1H-pyrazol-5-ylamino)-6-(4-(2-methoxyethyl)piperazin-1-yl)-1,3,5-triazin-2-yl)-4-fluoro-N-(1,2,4-thiadiazol-5-yl)pyrrolidine-2-carboxamide]",25%,
"O=C(Nc1cnccn1)[C@@H]1C[C@H](O)CN1c1nc(Nc2cc(C3CC3)n[nH]2)nc(N2CCOCC2)n1 [Example 85, (2S,4S)-1-(4-(3-Cyclopropyl-1H-pyrazol-5-ylamino)-6-morpholino-1,3,5-triazin-2-yl)-4-hydroxy-N-(pyrazin-2-yl)pyrrolidine-2-carboxamide]",,49%
